Measured values from patent publication US11702418B2, “SOS1 inhibitors” (priority 2019, dated 2023).
Where a name gives a salt, the structure may show the parent alone. Read-outs that look alike come from different tables or passages of the source.

Tests used:
[1] = test system: pERK in MKN1 cells; experiment: cells; type: cell-based
[2] = biological target: recombinant human SOS1 polypeptide (amino acids 560-1049) (Homo sapiens (Human), UniProt Q07889); experiment: biochemical; type: binding; conditions: read-out: Ki, Inhibition of Labeled Tracer Binding to SOS1
Sequence of recombinant human SOS1 polypeptide (amino acids 560-1049) (Q07889 560-1049): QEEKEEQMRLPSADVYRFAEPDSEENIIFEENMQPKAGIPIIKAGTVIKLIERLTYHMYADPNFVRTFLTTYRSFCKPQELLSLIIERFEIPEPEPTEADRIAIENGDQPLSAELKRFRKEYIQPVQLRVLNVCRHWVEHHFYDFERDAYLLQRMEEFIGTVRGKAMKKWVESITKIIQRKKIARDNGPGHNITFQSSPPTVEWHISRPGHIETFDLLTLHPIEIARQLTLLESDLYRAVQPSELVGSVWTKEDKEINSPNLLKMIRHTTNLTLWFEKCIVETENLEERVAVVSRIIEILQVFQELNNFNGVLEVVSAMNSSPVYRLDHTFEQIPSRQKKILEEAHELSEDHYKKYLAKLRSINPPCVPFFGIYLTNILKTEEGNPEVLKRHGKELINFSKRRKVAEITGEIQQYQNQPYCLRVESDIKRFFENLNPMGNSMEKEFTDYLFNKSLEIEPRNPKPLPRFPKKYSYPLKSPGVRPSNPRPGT

[3] = Homo sapiens, MKN-1, pERK inhibition, In-Cell Western, MKN1 or H358 cells (Table 24 does not say which), 0.5-1 hour incubation, read-out: IC50
[4] = HTRF displacement, Cy5 labelled tracer, Morrison equation for competitive binding
[5] = Homo sapiens, MKN-1, pERK inhibition, In-Cell Western, MKN1 or H358 cells (Table 24 does not say which), 0.5-1 hour incubation

Structure (SMILES)	IC50 [1, 3]	Ki [2, 4]	also measured
Cc1nnc(N[C@H](C)c2cc(O)cc(C(F)(F)F)c2)c2cc(N3CCOCC3)ncc12 [Example 21-1, (R)-3-(1-((4-methyl-7-morpholinopyrido[3,4-d]pyridazin-1-yl)amino)ethyl)-5-(trifluoromethyl)phenol]	77 nM	2.93 nM	
Cc1c([C@@H](C)Nc2nncc3ccc(O[C@H]4C[C@H](N(C)C)C4)cc23)cccc1C(F)(F)F [Example 2-8, 7-((trans)-3-(dimethylamino)cyclobutoxy)-N-((R)-1-(2-methyl-3-(trifluoromethyl)phenyl)ethyl)phthalazin-1-amine]	148 nM	2.99 nM	
Cc1c([C@@H](C)Nc2nnc(C)c3cnc(N4CCC4)cc23)cccc1C(F)(F)F [Example 12-38]	97 nM	1.29 nM	
Cc1c(C#N)cccc1[C@@H](C)Nc1nnc(C)c2ccc(O[C@H]3CCOC3)cc12 [Example 13-3]	195 nM	12.2 nM	
Cc1cccc([C@@H](C)Nc2nnc(C)c3cnc(N4CCN5CCOC[C@@H]5C4)cc23)c1F [Example 12-131]	28 nM	3.6 nM	
Cc1c([C@@H](C)Nc2nnc(C)c3cnc(N4CC(C)(O)C4)cc23)cccc1C(F)(F)F [Example 12-21]	57 nM	1.32 nM	
Cc1c([C@@H](C)Nc2nnc(C)c3ccc(N4CCC5(CCCN5)CC4)cc23)cccc1C(F)(F)F [Example 10-35, (R)-4-methyl-N-(1-(2-methyl-3-(trifluoromethyl)phenyl)ethyl)-7-(1,8-diazaspiro[4.5]decan-8-yl)phthalazin-1-amine]		0.31 nM	IC50 ([1]; pERK inhibition, In-Cell Western, MKN1 or H358 cells (Table 24 does not say which), 0.5-1 hour incubation, read-out: IC50): 1000 nM
Cc1nnc(N[C@H](C)c2cc(N)cc(C(F)(F)F)n2)c2cc(N3C[C@H]4CC[C@@H]3CN4C)ncc12 [Example 16-6, N-((R)-1-(4-amino-6-(trifluoromethyl)pyridin-2-yl)ethyl)-4-methyl-7-((1R, 4R)-5-methyl-2,5-diazabicyclo[2.2.2]octan-2-yl)pyrido[3,4-d]pyridazin-1-amine]	239 nM	6.5 nM	
COC1(C)CN(c2cc3c(N[C@H](C)c4cccc(C#N)c4C)nnc(C)c3cn2)C1 [Example 12-55]	59 nM	3.1 nM	
Cc1c([C@@H](C)Nc2nnc(C)c3cc(F)c(N4CCOCC4)cc23)cccc1C(F)(F)F [Example 18-2, (R)-6-fluoro-4-methyl-N-(1-(2-methyl-3-(trifluoromethyl)phenyl)ethyl)-7-morpholinophthalazin-1-amine]			IC50 [1, 5]: 380 nM; Ki [2]: 5.27 nM
Cc1c(C(F)F)cccc1[C@@H](C)Nc1nnc(C)c2ccc(N3CCOCC3)cc12 [Example 10-65, (R)-N-(1-(3-(difluoromethyl)-2-methylphenyl)ethyl)-4-methyl-7-morpholinophthalazin-1-amine Hydrochloride salt]			IC50 ([1]; Homo sapiens, MKN-1): 23 nM; Ki [2]: 0.95 nM
CCc1ccc2c(C)nnc(N[C@H](C)c3ccc(-c4ccccc4CNC)s3)c2c1 [8-2, (R)-7-ethyl-4-methyl-N-(1-(5-(2-((methylamino)methyl)phenyl)thiophen-2-yl)ethyl)phthalazin-1-amine]	605 nM	3.74 nM	
Cc1c(C(F)F)cccc1[C@@H](C)Nc1nnc(C)c2ccc(N3CCC(N4CCC4)CC3)cc12 [Example 10-44, (R)-7-(4-(azetidin-1-yl)piperidin-1-yl)-N-(1-(3-(difluoromethyl)-2-methylphenyl)ethyl)-4-methylphthalazin-1-amine hydrochloride salt]			IC50 ([1]; Homo sapiens, MKN-1): 53 nM; Ki [2]: 0.51 nM
Cc1c([C@@H](C)Nc2nnc(C)c3cnc(O[C@H]4CCN(C)C4)cc23)cccc1C(F)(F)F [Example 12-11]	142 nM	8.76 nM	
Cc1c(C#N)cccc1[C@@H](C)Nc1nnc(C)c2ccc(N3CCC(N4CCC4)CC3)cc12 [Example 10-68, (R)-3-(1-((7-(4-(azetidin-1-yl)piperidin-1-yl)-4-methylphthalazin-1-yl)amino)ethyl)-2-methylbenzonitrile]	36 nM	0.75 nM	
Cc1c(C#N)cccc1[C@@H](C)Nc1nnc(C)c2cnc(N3CC(C)(O)C3)cc12 [Example 12-30]	54 nM	2.63 nM	
Cc1c([C@@H](C)Nc2nnc(C)c3cnc(N4CC(O)C4)cc23)cccc1C(F)(F)F [Example 12-22]	89 nM	1.24 nM	
Cc1c([C@@H](C)Nc2nncc3ccc(OC4CCN(C)CC4)cc23)cccc1C(F)(F)F [Example 2-6, (R)-N-(1-(2-methyl-3-(trifluoromethyl)phenyl)ethyl)-7-((1-methylpiperidin-4-yl)oxy)phthalazin-1-amine]	83 nM	2.1 nM	
Cc1c(C#N)cccc1[C@@H](C)Nc1nnc(C)c2cnc(N3CC4(COCCN4C)C3)cc12 [Example 12-72]	19 nM	4.39 nM	

Structure (SMILES)	IC50 [1, 3]	Ki [2, 4]	also measured
Cc1nnc(N[C@H](C)c2ccc(F)cc2F)c2cc(N3CC4CC(C3)O4)ncc12 [Example 12-58]	38 nM	14.6 nM	
Cc1cc(F)ccc1[C@@H](C)Nc1nnc(C)c2cnc(N3CCN4CCOC[C@@H]4C3)cc12 [Example 12-79]	173 nM	36.3 nM	
Cc1c([C@@H](C)Nc2nnc(C)c3ccc(OC[C@H]4CCCN4)cc23)cccc1C(F)(F)F [Example 7-7, 4-methyl-N-((R)-1-(2-methyl-3-(trifluoromethyl)phenyl)ethyl)-7-(((R)-pyrrolidin-2-yl)methoxy)phthalazin-1-amine hydrochloride salt]			IC50 ([1]; Homo sapiens, MKN-1): 115 nM; Ki [2]: 0.92 nM
Cc1c([C@@H](C)Nc2nnc(C)c3ccc(N4CCC(N5CCC5)CC4)cc23)cccc1C(F)(F)F [Example 10-30, (R)-7-(4-(azetidin-1-yl)piperidin-1-yl)-4-methyl-N-(1-(2-methyl-3-(trifluoromethyl)phenyl)ethyl)phthalazin-1-amine hydrochloride salt]			IC50 ([1]; Homo sapiens, MKN-1): 48 nM; Ki [2]: 0.41 nM
Cc1c(F)cccc1[C@@H](C)Nc1nnc(C)c2cnc(N3CC(C)(N(C)C)C3)cc12 [Example 12-82]	330 nM	20.9 nM	
Cc1c([C@@H](C)Nc2nnc(C)c3ccc(N4CCS(=O)(=O)CC4)cc23)cccc1C(F)(F)F [Example 10-23, (R)-4-(1-methyl-4-((1-(2-methyl-3-(trifluoromethyl)phenyl)ethyl)amino)phthalazin-6-yl)thiomorpholine 1,1-dioxide]	19 nM	0.42 nM	
Cc1c([C@@H](C)Nc2nnc(C)c3ccc(N4CCC5(CCN(C)C5)CC4)cc23)cccc1C(F)(F)F [Example 10-37, (R)-4-methyl-N-(1-(2-methyl-3-(trifluoromethyl)phenyl)ethyl)-7-(2-methyl-2,8-diazaspiro[4.5]decan-8-yl)phthalazin-1-amine hydrochloride salt]			IC50 ([1]; Homo sapiens, MKN-1): 55 nM; Ki [2]: 0.24 nM
Cc1nnc(N[C@H](C)c2cccc(C#N)c2)c2cc(N3CCOCC3)ccc12 [Example 6-15, (R)-3-(1-((4-methyl-7-morpholinophthalazin-1-yl)amino)ethyl)benzonitrile]	172 nM	12.6 nM	
Cc1nnc(N[C@H](C)c2cccc(C(F)(F)F)c2F)c2cc(N3CCNCC3)ncc12 [Example 12-65]	16 nM	0.72 nM	
Cc1c([C@@H](C)Nc2nnc(C)c3ccc(N4CC5(CCN(C)C5)C4)cc23)cccc1C(F)(F)F [Example 10-41, (R)-4-methyl-N-(1-(2-methyl-3-(trifluoromethyl)phenyl)ethyl)-7-(6-methyl-2,6-diazaspiro[3.4]octan-2-yl)phthalazin-1-amine hydrochloride salt]			IC50 ([1]; Homo sapiens, MKN-1): 30 nM; Ki [2]: 0.52 nM
COc1c(C#N)cccc1[C@@H](C)Nc1nnc(C)c2ccc(N3CC(C)(O)C3)cc12 [Example 17-4, (R)-3-(1-((7-(3-hydroxy-3-methlazetidin-1-yl)-4-methylpyridazin-1-yl)amino)ethyl)-2-methoxybenzonitrile]	116 nM	14.4 nM	
Cc1c([C@@H](C)Nc2nnc(C)c3cnc(N4CCC(C)(N(C)C)CC4)cc23)cccc1C(F)(F)F [Example 12-18]	37 nM	0.62 nM	
Cc1nnc(N[C@H](C)c2cccc(C(F)(F)CO)c2)c2cc(N3CCOCC3)ncc12 [Example 21-7, (R)-2,2-difluoro-2-(3-(1-((4-methyl-7-morpholinopyrido[3,4-d]pyridazin-1-yl)amino)ethyl)phenyl)ethan-1-ol]			IC50 [1, 5]: 26 nM; Ki [2]: 0.71 nM
Cc1c([C@@H](C)Nc2nnc(C)c3ccc(N4CCNC5(CC5)C4)cc23)cccc1C(F)(F)F [Example 10-34, (R)-4-methyl-N-(1-(2-methyl-3-(trifluoromethyl)phenyl)ethyl)-7-(4,7-diazaspiro[2.5]octan-7-yl)phthalazin-1-amine]	136 nM	0.56 nM	
Cc1c(C#N)cccc1[C@@H](C)Nc1nnc(C)c2cnc(N(C)C)cc12 [Example 12-45]	250 nM	3.78 nM	
Cc1c([C@@H](C)Nc2nnc(C)c3cnc(OC4CN(C)C4)cc23)cccc1C(F)(F)F [Example 12-12]	249 nM	21.6 nM	
Cc1c(C#N)cccc1[C@@H](C)Nc1nnc(C)c2ccc(N3C[C@H]4C[C@@H]3CO4)cc12 [Example 10-54, 3-((R)-1-((7-((1R,4R)-2-oxa-5-azabicyclo[2.2.1]heptan-5-yl)-4-methylphthalazin-1-yl)amino)ethyl)-2-methylbenzonitrile Formate salt]			IC50 ([1]; Homo sapiens, MKN-1): 48 nM; Ki [2]: 1.34 nM
Cc1c([C@@H](C)Nc2nncc3ccc(N4CCC5C4CCCN5C)cc23)cccc1C(F)(F)F (stereo partly drawn) [Example 1-38, N-((R)-1-(2-methyl-3-(trifluoromethyl)phenyl)ethyl)-7-(4-methyloctahydro-1H-pyrrolo[3,2-b]pyridin-1-yl)phthalazin-1-amine]	136 nM	0.5 nM	
